Target: T1, human Y4 receptor (Homo sapiens, UniProt P50391)
T1 construct: expressed in transfected cells
Experiment: NPY4 cAMP HTRF Agonist Assay (inhibitory cAMP assay, Gi activation by Y4 agonism)
Type: cell-based
Details: TABLE 2, R2 is Phenyl-CN; read-out: hY4 CAMP EC50
In short: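 Y4 agonism read as lowered forskolin-stimulated cAMP (HTRF, 1 h detection at room temperature). Stable human Y4 CHO clone, 5000 cells/well, incubated 30 min at room temperature with compounds plus forskolin and IBMX in PBS.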

T1 sequence (P50391 whole entry): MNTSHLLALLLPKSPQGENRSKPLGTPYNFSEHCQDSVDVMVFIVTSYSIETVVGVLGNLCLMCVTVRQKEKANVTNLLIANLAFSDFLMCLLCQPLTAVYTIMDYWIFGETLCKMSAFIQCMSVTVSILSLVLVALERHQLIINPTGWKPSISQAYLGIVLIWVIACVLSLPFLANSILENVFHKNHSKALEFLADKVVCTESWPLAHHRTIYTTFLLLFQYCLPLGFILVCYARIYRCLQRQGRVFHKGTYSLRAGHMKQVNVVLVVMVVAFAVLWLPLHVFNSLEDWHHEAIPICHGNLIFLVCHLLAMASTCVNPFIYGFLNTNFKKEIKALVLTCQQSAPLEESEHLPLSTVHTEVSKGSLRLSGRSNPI

Row | EC50 | Compound
1 | 116 nM | COc1ccccc1-c1ccnc(N[C@@H]2CCCC[C@H]2N[C@H]2CCCN(c3ccc(C#N)cc3)C2)c1 [Example 262]
2 | 440 nM | N#Cc1ccc(N2CCC[C@H](N[C@@H]3CCCC[C@H]3Nc3cc(-n4ccc(C(F)(F)F)n4)ccn3)C2)cc1 [Example 206]
3 | 3 nM | C[C@@H](O)c1cccc(-c2ccnc(N[C@@H]3CCCC[C@H]3N[C@H]3CCCN(c4ccc(C#N)cc4)C3)c2)c1 [Example 267]
4 | 72 nM | CN(C)c1cccc(-c2ccnc(N[C@@H]3CCCC[C@H]3N[C@H]3CCCN(c4ccc(C#N)cc4)C3)c2)c1 [Example 240]
5 | 290 nM | N#Cc1ccc(N2CCC[C@H](N[C@@H]3CCCC[C@H]3Nc3cc(-c4ccc(N)cc4)ccn3)C2)cc1 [Example 239]
6 | 16 nM | N#Cc1ccc(N2C[C@@H]3C[C@H](N[C@@H]4CCCC[C@H]4Nc4cc(-c5ccc(OC(F)F)cc5)ccn4)[C@H]2C3)cc1 [Example 227]
7 | 183 nM | N#Cc1ccc(N2CCC[C@H](N[C@@H]3CCCC[C@H]3Nc3cc(-c4cccc5c4NC(=O)C5)ccn3)C2)cc1 [Example 213]
8 | 39 nM | CC(C)(O)c1cccc(-c2cnc(N[C@@H]3CCCC[C@H]3N[C@H]3CCCN(c4ccc(C#N)cc4)C3)o2)c1 [Example 207]
9 | 0.2 nM | CCOC(=O)Nc1cccc(-c2cnc(N[C@@H]3CCCC[C@H]3N[C@H]3CCCN(c4ccc(C#N)cc4)C3)o2)c1 [Example 205]
10 | 922 nM | CS(=O)(=O)c1ccc(-c2ccnc(N[C@@H]3CCCC[C@H]3N[C@H]3CCCN(c4ccc(C#N)cc4)C3)c2)cc1 [Example 255]
11 | 189 nM | N#Cc1ccc(N2CCC[C@H](N[C@@H]3CCCC[C@H]3Nc3cc(-c4cncc5ccccc45)ccn3)C2)cc1 [Example 216]

Same assay, conditions: TABLE 3, R2 is Phenyl-NO2; read-out: hY4 CAMP EC50

Row | EC50 | Compound
12 | 68 nM | O=[N+]([O-])c1ccc(N2C[C@@H]3C[C@H](N[C@@H]4CCCC[C@H]4Nc4cc(-c5ccc(OC(F)(F)F)cc5)ncn4)[C@H]2C3)cc1 [Example 296]

Same assay, conditions: TABLE 4, R2 is Pyridinyl-CN; read-out: hY4 CAMP EC50

Row | EC50 | Compound
13 | 1210 nM | N#Cc1ccc(N2C[C@@H]3C[C@H](N[C@@H]4CCCC[C@H]4Nc4cc(-c5cccc(C(N)=O)c5)ccn4)[C@H]2C3)cn1 [Example 302]

Same assay, conditions: TABLE 5, R2 is Pyridinyl-CF3; read-out: hY4 CAMP EC50

Row | EC50 | Compound
14 | 31 nM | NC(=O)c1cccc(-c2cnc(N[C@@H]3CCCC[C@H]3N[C@H]3C[C@@H]4C[C@H]3N(c3ccc(C(F)(F)F)nc3)C4)o2)c1 [Example 328]
15 | 212 nM | FC(F)(F)Oc1ccc(-c2cnc(N[C@@H]3CCCC[C@H]3N[C@H]3CCCN(c4ccnc(C(F)(F)F)c4)C3)o2)cc1 [Example 336]

Same assay, conditions: human Y4 receptor, cAMP; read-out: hY4 CAMP EC50

Row | EC50 | Compound
16 | 69 nM | NC(=O)c1cccc(-c2ccnc(N[C@@H]3CCCC[C@H]3N[C@H]3C[C@@H]4C[C@H]3N(c3ncc(C(F)(F)F)cn3)C4)c2)c1 [Example 424]
17 | 84 nM | Cn1nnc(-c2ccc(N3CCC[C@H](N[C@@H]4CCCC[C@H]4Nc4cc(Br)ccn4)C3)cc2)n1 [Example 501]
18 | 5 nM | CS(=O)(=O)Nc1cccc(-c2cnc(N[C@@H]3CCCC[C@H]3N[C@H]3CCCN(c4cnc(C(F)(F)F)nc4)C3)o2)c1 [Example 414]
19 | 4 nM | CNC(=O)c1cccc(-c2cnc(N[C@@H]3CCCC[C@H]3N[C@H]3CCCN(c4ccc5nc(C)nn5c4)C3)o2)c1 [Example 496]
20 | 22 nM | NC(=O)c1cccc(-c2ccnc(N[C@@H]3CCCC[C@H]3N[C@H]3CCCN(c4ncc(C(F)(F)F)cn4)C3)c2)c1 [Example 399]
21 | 11 nM | Cc1nc(-c2ccc(N3CCC[C@H](N[C@@H]4CCCC[C@H]4Nc4cc(-c5ccc(F)cc5F)ccn4)C3)cc2)no1 [Example 343]
22 | 4 nM | COC(=O)Nc1cccc(-c2ccnc(N[C@@H]3CCCC[C@H]3N[C@H]3CCCN(c4ccc(-c5cccnc5)cc4)C3)c2)c1 [Example 514]
23 | 49 nM | O=C1OCCN1c1cccc(-c2cnc(N[C@@H]3CCCC[C@H]3N[C@H]3CCCN(c4cnc(C(F)(F)F)nc4)C3)o2)c1 [Example 416]
24 | 8 nM | NC(=O)c1cccc(-c2cnc(N[C@@H]3CCCC[C@H]3N[C@H]3CCCN(c4cnc(C(F)(F)F)cn4)C3)o2)c1 [Example 475]

Same assay, conditions: human Y4 stable CHO clonal cells, forskolin + IBMX; read-out: NPY4 cAMP HTRF Agonist Assay EC50

Row | EC50 | Compound
25 | 14 nM | O=[N+]([O-])c1ccc(N2CCC[C@H](N[C@@H]3CCCC[C@H]3Nc3cc(-c4ccccc4)ccn3)C2)cc1 [Example 25, (1R,2R)—N1-((S)-1-(4-Nitrophenyl)piperidin-3-yl)-N2-(4-phenylpyridin-2-yl)cyclohexane-1,2-diamine]
26 | 3 nM | COC(=O)Nc1cccc(-c2cnc(N[C@@H]3CCCC[C@H]3N[C@H]3CCCN(c4cnc(C(F)(F)F)nc4)C3)o2)c1 [Example 103, Methyl (3-(2-((1R,2R)-2((S)-1-(2-trifluoromethyl)pyrimidin-5-yl)piperidin-3-ylamino)cyclohexylamino)oxazol-5-yl)phenylcarbamate]
27 | 288 nM | c1ccc(-c2ccnc(N[C@@H]3CCCC[C@H]3N[C@H]3CCCN(c4ccc(-n5cncn5)cc4)C3)n2)cc1 [Example 91, (1R,2R)—N1-((S)-1-(4-(1H-1,2,4-Triazol-1-yl)phenyl)piperidin-3-yl)-N2-(4-phenylpyrimidin-2-yl)cyclohexane-1,2-diamine bis-trifluoroacetate]
28 | 3 nM | O=[N+]([O-])c1ccc(N2CCC[C@H](N[C@@H]3CCCC[C@H]3Nc3ncc(-c4ccccc4)o3)C2)cc1 [Example 2, (1R,2R)—N1-((S)-1-(4-Nitrophenyl)piperidin-3-yl)-N2-(5-phenyloxazol-2-yl)cyclohexane-1,2-diamine]
29 | 83 nM | Fc1cc(N2CCC[C@H](N[C@@H]3CCCC[C@H]3Nc3ncc(-c4ccc(OC(F)(F)F)cc4)o3)C2)ccc1C(F)(F)F [Example 73, (1R,2R)—N1-((S)-1-(3-Fluoro-4-(trifluoromethyl)phenyl)piperidin-3-yl)-N2-(5-(4-(trifluoromethoxy)phenyl)oxazol-2-yl)cyclohexane-1,2-diamine bis-trifluoroacetate]
30 | 8 nM | O=[N+]([O-])c1ccc(N2CCC[C@H](N[C@@H]3CCCC[C@H]3Nc3ncc(-c4ccccc4)s3)C2)cc1 [Example 26]
31 | 71 nM | O=[N+]([O-])c1ccc(N2CCC[C@H](N[C@@H]3CCCC[C@H]3Nc3cc(-c4cccc(OC(F)(F)F)c4)ccn3)C2)cc1 [Example 23, (1R,2R)—N1-((S)-1-(4-Nitrophenyl)piperidin-3-yl)-N2-(4-(3-(trifluoromethoxy)phenyl)pyridin-2-yl)cyclohexane-1,2-diamine]
32 | 21 nM | Fc1cccc(-c2cnc(N[C@@H]3CCCC[C@H]3N[C@H]3CCCN(c4ccc(C(F)(F)F)cc4)C3)o2)c1 [Example 76, (1R,2R)—N1-(5-(3-Fluorophenyl)oxazol-2-yl)-N2-((S)-1-(4-(trifluoromethyl)phenyl)piperidin-3-yl)cyclohexane-1,2-diamine]
33 | 0.2 nM | CNC(=O)c1cccc(-c2cnc(N[C@@H]3CCCC[C@H]3N[C@H]3CCCN(c4ccc(C(F)(F)F)cc4)C3)o2)c1 [Example 105, N-Methyl (3-(2-((1R,2R)-2((S)-1-(4-trifluoromethyl)phenyl)piperidin-3-ylamino)cyclohexylamino)oxazol-5-yl)benzamide]
34 | 8 nM | O=[N+]([O-])c1ccc(N2C[C@@H]3C[C@H](N[C@@H]4CCCC[C@H]4Nc4ncc(-c5ccccc5F)o4)[C@H]2C3)cc1 [Example 15, (1R,2R)—N1-(5-(2-Fluorophenyl)oxazol-2-yl)-N2-((1R,4R,6S)-2-(4-nitrophenyl)-2-azabicyclo[2.2.1]heptan-6-yl)cyclohexane-1,2-diamine]
35 | 2 nM | CCOC(=O)Nc1cccc(-c2cnc(N[C@@H]3CCCC[C@H]3N[C@H]3CCCN(c4ccc(C(F)(F)F)cc4)C3)o2)c1 [Example 101, Ethyl (3-(2-((1R,2R)-2(S)-1-(4-trifluoromethyl)phenylpiperidin-3-ylamino)cyclohexylamino)oxazol-5-yl)phenylcarbamate]
36 | 57 nM | Cc1ccn(-c2ccc(N3CCC[C@H](N[C@@H]4CCCC[C@H]4Nc4nccc(-c5ccccc5)n4)C3)cc2)n1 [Example 67, (1R,2R)—N1-((S)-1-(4-(3-Methyl-1H-pyrazol-1-yl)phenyl)piperidin-3-yl)-N2-(4-phenylpyrimidin-2-yl)cyclohexane-1,2-diamine bis-trifluoroacetate]
37 | 29 nM | N#Cc1ccc(N2CCC[C@H](N[C@@H]3CCCC[C@H]3Nc3nccc(-c4ccccc4)n3)C2)cc1Cl [Example 40, 2-Chloro-4-((S)-3-((1R,2R)-2-(4-phenylpyrimidin-2-ylamino)cyclohexylamino)piperidin-1-yl)benzonitrile bis-trifluoroacetate]
38 | 463 nM | N#Cc1ccc(N2CCC[C@H](N[C@@H]3CCCC[C@H]3Nc3nc4ccccc4o3)C2)cc1 [Example 55, 4-((S)-3-((1R,2R)-2-(Benzo[d]oxazol-2-ylamino)cyclohexylamino)piperidin-1-yl)benzonitrile]
39 | 384 nM | FC(F)(F)c1ccn(-c2ccc(N3CCC[C@H](N[C@@H]4CCCC[C@H]4Nc4nccc(-c5ccccc5)n4)C3)cc2)n1 [Example 69, (1R,2R)—N1-(4-Phenylpyrimidin-2-yl)-N2-((S)-1-(4-(3-(trifluoromethyl)-1H-pyrazol-1-yl)phenyl)piperidin-3-yl)cyclohexane-1,2-diamine bis-trifluoroacetate]

Same assay, conditions: second TABLE 1, R2 is Phenyl-CF3; read-out: hY4 CAMP EC50

Row | EC50 | Compound
40 | 205 nM | CC(C)CNC(=O)c1cccc(-c2ccnc(N[C@@H]3CCCC[C@H]3N[C@H]3CCCN(c4ccc(C(F)(F)F)cc4)C3)c2)c1 [Example 148]
41 | 2 nM | CCOC(=O)Nc1cccc(-c2ccnc(N[C@@H]3CCCC[C@H]3N[C@H]3CCCN(c4ccc(C(F)(F)F)cc4)C3)c2)c1 [Example 136]
42 | 53 nM | FC(F)(F)c1ccc(N2CCC[C@H](N[C@@H]3CCCC[C@H]3Nc3cc(-c4cccc(-n5cccn5)c4)ccn3)C2)cc1 [Example 158]
43 | 38 nM | CC(C)(C)NC(=O)c1cccc(-c2cnc(N[C@@H]3CCCC[C@H]3N[C@H]3CCCN(c4ccc(C(F)(F)F)cc4)C3)o2)c1 [Example 118]
